Data as given in US9315459B2, “Crystalline forms of 4-[2-(4-methylphenylsulfanyl)-phenyl] piperidine” (priority 2006, dated 2016).

Legend:
[1] = target: T1, human-homomeric 5-HT3A receptors (Homo sapiens, UniProt P46098); assay: Voltage clamp in oocytes expressing human-homomeric 5-HT3A receptors; type: cell-based; conditions: agonism at higher concentrations
T1 sequence (P46098 24-478): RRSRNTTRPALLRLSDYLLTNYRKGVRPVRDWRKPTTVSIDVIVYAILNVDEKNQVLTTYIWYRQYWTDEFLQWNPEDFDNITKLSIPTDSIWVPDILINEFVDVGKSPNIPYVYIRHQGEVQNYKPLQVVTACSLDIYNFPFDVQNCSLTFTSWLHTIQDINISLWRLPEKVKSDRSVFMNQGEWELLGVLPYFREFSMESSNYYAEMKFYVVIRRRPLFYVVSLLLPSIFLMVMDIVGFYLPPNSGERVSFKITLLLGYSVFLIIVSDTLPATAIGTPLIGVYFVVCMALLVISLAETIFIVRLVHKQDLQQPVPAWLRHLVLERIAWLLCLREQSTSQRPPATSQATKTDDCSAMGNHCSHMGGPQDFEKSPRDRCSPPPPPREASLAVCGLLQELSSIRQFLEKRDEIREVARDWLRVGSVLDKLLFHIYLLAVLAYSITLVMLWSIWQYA
Procedure: The experiments were carried out as follows. […] Oocytes avoid of the follicle layer were selected and incubated for 24 hours in Modified Barth's Saline buffer [88 mM NaCl, 1 mM KCl, 15 mM HEPES, 2.4 mM NaHCO3, 0.41 mM CaCl2, 0.82 mM MgSO4, 0.3 mM Ca(NO3)2] supplemented with 2 mM sodium pyruvate, 0.1 U/l penicillin and 0.1 μg/l streptomycin. Stage […] oocytes were identified and injected with 12-48 nl of nuclease free water containing 14-50 pg of cRNA coding for human 5-HT3A receptors receptors and incubated at 18° C. until they were used for electrophysiological recordings (1-7 days after injection). […] Cells were impaled with agar plugged 0.5-1 MΩ electrodes containing 3 M KCl and voltage clamped at −90 mV by a GeneClamp 500B amplifier. The oocytes were continuously perfused with Ringer buffer and the drugs were applied in the perfusate.

[2] = test system: extracellular levels of acetylcholine; assay: Microdialysis, extracellular acetylcholine in prefrontal cortex and ventral hippocampus of freely-moving rats (Example 2G); type: in vivo, rat; conditions: Sprague-Dawley rats, FIG. 25a+b
Procedure: The experiment was designed to evaluate the effects of compounds of the present invention on extracellular levels of acetylcholine in the prefrontal cortex and ventral hippocampus of freely-moving rats.
Male Sprague-Dawley rats, initially weighing 275-300 g, were used. The animals were housed under a 12-hr light/dark cycle under controlled conditions for regular in-door temperature (21±2° C.) and humidity (55±5%) with food and tap water available ad libitum.
Rats were anaesthetised with hypnorm/dormicum (2 ml/kg) and intracerebral guide cannulas (CMA/12) were stereotaxically implanted into the hippocampus, aiming to position the dialysis probe tip in the ventral hippocampus (co-ordinates: 5.6 mm posterior to bregma, lateral −5.0 mm, 7.0 mm ventral to dura or in the frontal cortex (co-ordinates: 3.2 mm anterior to bregma; lateral, 0.8 mm; 4.0 mm ventral to dura). Anchor screws and acrylic cement were used for fixation of the guide cannulas. The body temperature of the animals was monitored by rectal probe and maintained at 37° C. The rats were allowed to recover from surgery for 2 days, housed singly in cages. On the day of the experiment a microdialysis probe (CMA/12, 0.5 mm diameter, 3 mm length) was inserted through the guide cannula.
The probes were connected via a dual channel swivel to a microinjection pump. […]

[3] = target: T2, human 5-HT2A receptors (Homo sapiens, UniProt P28223); assay: Functional assay, 5-HT evoked release of Ca2+ in CHO cells expressing human 5-HT2A receptors (FLIPR); type: cell-based; conditions: mammalian cells expressing human 5-HT2A
T2 construct: expressed in transfected cells; host or cells: CHO cells (functional assay)
T2 sequence (P28223 whole entry): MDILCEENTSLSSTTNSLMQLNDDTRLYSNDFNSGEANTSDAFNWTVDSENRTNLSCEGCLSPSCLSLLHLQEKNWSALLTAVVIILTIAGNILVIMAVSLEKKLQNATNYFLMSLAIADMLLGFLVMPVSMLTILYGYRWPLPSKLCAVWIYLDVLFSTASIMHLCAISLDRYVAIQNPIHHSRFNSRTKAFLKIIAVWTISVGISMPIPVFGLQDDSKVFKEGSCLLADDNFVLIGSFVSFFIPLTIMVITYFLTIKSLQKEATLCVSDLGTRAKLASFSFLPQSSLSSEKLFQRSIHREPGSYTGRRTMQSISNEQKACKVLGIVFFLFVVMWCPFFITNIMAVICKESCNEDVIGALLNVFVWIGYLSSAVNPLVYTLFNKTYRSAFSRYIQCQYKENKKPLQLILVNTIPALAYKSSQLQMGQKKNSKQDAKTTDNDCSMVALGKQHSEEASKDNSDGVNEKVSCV
Procedure: The experiment was carried out as follows. 2 or 3 days before the experiment CHO cells expressing 250 fmol/mg human 5-HT2A receptors are plated at a density sufficient to yield a mono-confluent layer on the day of the experiment. […] Lacer intensity was set to a suitable level to obtain basal values of approximately 8000-10000 fluorescence units. The variation in basal fluorescence should be less than 10%. […] Ki values are calculated using Cheng-Prusoff equation.

## Cc1ccc(Sc2ccccc2C2CCNCC2)cc1 [compound I, 4-[2-(4-methylphenylsulfanyl)-phenyl]piperidine]
[1]
  Maximal current, % of the maximal current elicited by 5-HT: 70-80%
[2]
  Extracellular level of acetylcholine: increase
[3]
  Mode of action at human 5-HT2A receptors: competitive antagonistic properties
